{
  "source": "paper PMC8510812",
  "about": "“Studies on the Incompatibility between Bulbus fritillariae and Radix aconiti praeparata Based on the P-gp” (Evidence-based Complementary and Alternative Medicine : eCAM, 2021)",
  "key": {"ileum": {"tested_on": "ileum", "test": "Rat SPIP, Peff of monoester alkaloids in Radix aconiti praeparata extract with or without Bulbus fritillariae", "type": "in vivo", "conditions": "n = 6, Figure 3", "method": "(§1) Rats were anaesthetized by an intraperitoneal injection of urethane and then placed on a heated pad. The small intestine was exposed by surgery. 10 cm of the ileum segment was ligated and cannulated with glass tubing for perfusion. Caroline et al. reported that the level of P-gp expression in rat ileum was the highest. In order to better reflect the characteristics of P-gp, we selected the ileum segment. The cannulated segment was rinsed with saline (37°C), and attached to the perfusion assembly consisted of a syringe pump and a 50 ml syringe. The selected ileum was placed as “U” shape and covered with the gauze wet by saline. The perfusate was collected every 10 min at a flow rate of 0.2 ml/min for 90 min. The perfused intestine segment was removed and opened along the mesentery to measure the area. Samples were frozen immediately and stored at -20°C until analysis. Digoxin, an exclusive substrate of P-gp, was chosen as the FDA guidelines.\nThe concentrations of drugs in SPIP experiment were determined by HPLC. A MS-C18 column (5 μm, 4.6 mm × 150 mm, Agilent, USA) with an analytical TC-C18 guard column (5 μm, 4.6 mm × 12.5 mm, Agilent, USA) was maintained at 30°C. The analytical mobile phase about digoxin consisted of water and acetonitrile in a 75 : 25 (v/v) ratio. Benzoylaconine, benzoylmesaconine, and benzoylhypacoitine consisted of 0.05% acetic acid and methanol in a gradient from 85 : 15 to 55 : 45 (v/v) ratio. The flow rate was 1 mL/min. The injection volume was 10 µL. Digoxin was detected by absorbance at 220 nm and benzoylaconine, benzoylmesaconine, and benzoylhypacoitine at 235 nm.\nP eff was calculated by the following equation:(1) Peff=−QinlnCoutQout/CinQin/2πrL. Here, Qin and Qout were the flow rate at inlet and outlet, respectively. Cin and Cout were the concentration at inlet and outlet, respectively. 2πrL was the mass transfer surface area within the intestinal segment, which was assumed to be the area of the cylinder with the radius (r) and length (L)."}, "P-gp [1]": {"tested_on": "P-gp", "type": "in vivo, rat", "conditions": "in the presence of verapamil, n = 6, Figure 10", "method": "as §1\nThe concentrations of drugs in SPIP experiment were determined by HPLC. A MS-C18 column (5 μm, 4.6 mm × 150 mm, Agilent, USA) with an analytical TC-C18 guard column (5 μm, 4.6 mm × 12.5 mm, Agilent, USA) was maintained at 30°C. […] Digoxin was detected by absorbance at 220 nm and benzoylaconine, benzoylmesaconine, and benzoylhypacoitine at 235 nm.\nP eff was calculated by the following equation:(1) Peff=−QinlnCoutQout/CinQin/2πrL. […]"}, "P-gp [2]": {"target": "T1, P-gp (Homo sapiens, UniProt P08183)", "T1 construct": "host or cells: MDR1-MDCK cells", "T1 sequence (P08183 whole entry)": "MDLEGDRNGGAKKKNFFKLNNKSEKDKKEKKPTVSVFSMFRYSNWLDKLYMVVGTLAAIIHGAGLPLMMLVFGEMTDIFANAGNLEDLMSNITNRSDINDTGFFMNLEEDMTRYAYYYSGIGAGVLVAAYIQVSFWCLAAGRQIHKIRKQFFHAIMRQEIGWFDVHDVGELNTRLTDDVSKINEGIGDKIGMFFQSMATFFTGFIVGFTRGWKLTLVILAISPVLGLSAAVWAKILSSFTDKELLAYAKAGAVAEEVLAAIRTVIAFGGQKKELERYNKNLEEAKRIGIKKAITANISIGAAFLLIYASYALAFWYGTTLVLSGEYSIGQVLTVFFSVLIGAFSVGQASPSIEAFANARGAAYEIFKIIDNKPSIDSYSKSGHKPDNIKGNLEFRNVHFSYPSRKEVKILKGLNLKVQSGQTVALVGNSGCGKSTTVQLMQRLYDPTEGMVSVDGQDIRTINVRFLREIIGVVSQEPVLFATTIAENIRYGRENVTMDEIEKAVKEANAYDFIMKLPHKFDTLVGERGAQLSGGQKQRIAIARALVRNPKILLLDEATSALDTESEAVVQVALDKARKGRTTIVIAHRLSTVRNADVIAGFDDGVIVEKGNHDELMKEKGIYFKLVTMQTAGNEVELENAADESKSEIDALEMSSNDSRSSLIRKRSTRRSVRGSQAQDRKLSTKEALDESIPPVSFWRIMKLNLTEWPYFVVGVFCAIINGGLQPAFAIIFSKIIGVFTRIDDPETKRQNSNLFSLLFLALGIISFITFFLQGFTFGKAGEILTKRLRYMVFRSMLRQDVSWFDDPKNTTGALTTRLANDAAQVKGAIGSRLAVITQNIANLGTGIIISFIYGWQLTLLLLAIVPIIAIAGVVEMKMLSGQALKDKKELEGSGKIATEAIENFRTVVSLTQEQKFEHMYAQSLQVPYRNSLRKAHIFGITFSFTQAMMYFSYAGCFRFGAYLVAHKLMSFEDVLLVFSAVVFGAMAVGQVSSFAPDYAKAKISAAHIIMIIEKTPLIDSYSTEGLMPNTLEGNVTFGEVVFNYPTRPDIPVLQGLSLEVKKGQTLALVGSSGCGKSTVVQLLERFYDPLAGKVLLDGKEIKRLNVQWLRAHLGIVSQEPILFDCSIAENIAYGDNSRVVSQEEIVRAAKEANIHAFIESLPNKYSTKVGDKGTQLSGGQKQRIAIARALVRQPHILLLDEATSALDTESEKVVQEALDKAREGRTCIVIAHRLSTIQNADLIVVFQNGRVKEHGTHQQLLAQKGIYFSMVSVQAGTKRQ", "type": "cell-based", "conditions": "MDR1-MDCK cells, n = 3", "description": "MDR1-MDCK cells, obtained from the College of Pharmaceutical Sciences in Zhejiang University (China), were cultured in DMEM containing 10% FBS, 100 µg/mL-100 U/mL penicillin-streptomycin, and 1% NEAA at 37°C in an atmosphere of 5% CO2 and 95% relative humidity. Cells were passaged at 80%–90% conﬂuence. P-gp inhibitors were screened by MDR1-MDCK cell transport study using the calcein-AM kit. Briefly, the cells were seeded in a 96-well black opaque plate and cultured for 48 h. Then, the cells were washed twice with PBS. 100 µL drug and 50 µL culture medium was added and preincubated at 37°C for 10 min. 50 µL 1 µM calcein-AM was added and incubated at 37°C for 1 h. Cold PBS was used to terminate the reaction. 100 µL 0.1% Triton-100 was added for cell permeability.\nRFR was calculated by (4) RFR=RFU TS/RFU CS×100%. Here, RFU TS was the RFU of the test sample and RFU CS was the RFU of the control sample."}},
  "note": "Where two headings read alike, the source gives them in different places.",
  "data": [
    {"smiles": "CCN1C[C@]2(COC)[C@H](O)C[C@H](OC)[C@@]34[C@@H]5C[C@@]6(O)[C@H](OC(=O)c7ccccc7)[C@@H]5[C@@](O)([C@@H]([C@H](OC)[C@H]23)[C@@H]14)[C@@H](O)[C@@H]6OC", "note": "[Benzoylaconine]", "values": [
      {"measurement": "Peff of monoester alkaloid in Radix aconiti praeparata extract versus Radix aconiti praeparata + Bulbus fritillariae cirrhosae extract", "setting": "ileum", "result": "No significant differences"},
      {"measurement": "Peff of monoester alkaloid in Radix aconiti praeparata extract versus Radix aconiti praeparata + Bulbus fritillariae thunbergii extract", "setting": "ileum", "result": "No significant differences"},
      {"measurement": "Peff of monoester alkaloid in Radix aconiti praeparata extract versus that supplemented with verapamil", "setting": "P-gp [1]", "result": "No significant differences"}
    ]},
    {"smiles": "COC[C@@]12CC[C@H](OC)[C@]34C([C@H]([C@H](OC)[C@H]13)[C@]1(O)[C@H]3[C@@H](OC(=O)c5ccccc5)[C@](O)(C[C@H]34)[C@@H](OC)[C@@H]1O)N(C)C2", "note": "[Benzoylhypacoitine]", "values": [
      {"measurement": "Peff of monoester alkaloid in Radix aconiti praeparata extract versus Radix aconiti praeparata + Bulbus fritillariae cirrhosae extract", "setting": "ileum", "result": "No significant differences"},
      {"measurement": "Peff of monoester alkaloid in Radix aconiti praeparata extract versus Radix aconiti praeparata + Bulbus fritillariae thunbergii extract", "setting": "ileum", "result": "No significant differences"},
      {"measurement": "Peff of monoester alkaloid in Radix aconiti praeparata extract versus that supplemented with verapamil", "setting": "P-gp [1]", "result": "No significant differences"}
    ]},
    {"smiles": "COC[C@]12CN(C)C3[C@@H]4[C@H](OC)[C@H]1[C@@]3([C@@H](OC)C[C@H]2O)[C@@H]1C[C@@]2(O)[C@H](OC(=O)c3ccccc3)[C@@H]1[C@]4(O)[C@@H](O)[C@@H]2OC", "note": "[Benzoylmesaconine]", "values": [
      {"measurement": "Peff of monoester alkaloid in Radix aconiti praeparata extract versus Radix aconiti praeparata + Bulbus fritillariae cirrhosae extract", "setting": "ileum", "result": "significant differences"}
    ]},
    {"smiles": "C[C@H]1CC[C@@H]2N(C1)C[C@H]1[C@@H]3C[C@H]4[C@@H](C[C@H](O)[C@H]5C[C@@H](O)CC[C@@]54C)[C@@H]3CC[C@@H]1[C@]2(C)O", "note": "[Peimine]", "values": [
      {"measurement": "RFR of calcein versus control group", "setting": "P-gp [2]; high-dose group", "result": "highly significant differences"},
      {"measurement": "RFR of calcein versus control group", "setting": "P-gp [2]; low-dose group", "result": "no significant differences"}
    ]},
    {"smiles": "C[C@H]1CCC2N(C1)C[C@H]1C3CC4[C@@H](CC(=O)C5C[C@@H](O)CC[C@@]54C)C3CCC1[C@]2(C)O", "note": "(stereo partly shown) [Peiminine]", "values": [
      {"measurement": "RFR of calcein versus control group", "setting": "P-gp [2]; high-dose group", "result": "no significant differences"},
      {"measurement": "RFR of calcein versus control group", "setting": "P-gp [2]; low-dose group", "result": "no significant differences"}
    ]},
    {"smiles": "CC1=C2C[C@H]3[C@@H](CC(=O)[C@H]4C[C@@H](O)CC[C@@]43C)[C@@H]2CC[C@]12O[C@@H]1C[C@H](C)CN[C@H]1[C@H]2C", "note": "[Peimisine]", "values": [
      {"measurement": "RFR of calcein versus control group", "setting": "P-gp [2]; high-dose group", "result": "highly significant differences"},
      {"measurement": "RFR of calcein versus control group", "setting": "P-gp [2]; low-dose group", "result": "highly significant differences"}
    ]}
  ]
}
